For assay [1], the target named is Human CB1R (Cannabanoid receptor 1) (Homo sapiens (Human), UniProt P21554). Nature of the assay: CB-1 in vitro cAMP (HTRF) assay in HEK-293 cells. Particulars: HEK-293 cells stably transfected with human CB1R, 250 nM Forskolin, mean where tested more than once, read-out: CB-1 (HEK_cAMP) EC50. Format: cell-based. An excerpt:
(§1) CB1 and CB2 receptors are Gi-coupled GPCR. Activation of CB1 and CB2 receptors results in a decrease in cAMP production. An inverse agonist of the CB1 or CB2 receptor results in the opposite effect, an increase of cAMP production. The principle of this assay is based on HTRF® technology (Homogeneous Time-Resolved Fluorescence). The method is a competitive immunoassay between native cAMP produced by cells and the cAMP labeled with the fluorophore d2. The tracer binding is quantified by a Mab anti-cAMP labeled with Eu3+TBP-NHS Cryptate (supplied as part of the assay kit). The specific signal (i.e. energy transfer) is inversely proportional to the concentration of cAMP in the standard or sample.
(§2) Human CB1R (Cannabanoid receptor 1) was stably transfected in HEK-293 cells (DiscoveRx, cat: 93-0200C1). Human CB2R (Cannabanoid receptor 2) was stably transfected in HEK-293 cells (DiscoveRx, cat: 93-0201C1). Cell cultures were maintained in media: DMEM (Invitrogen Cat#12430-054) supplemented with 10% HI FBS (Invitrogen Cat#16140-071), 1% L-glutamine (Invitrogen Cat#25030-081), 0.2 mg/ml Hygromycin B (Invitrogen Cat#10687-010), 600 μg/mL G418 (Invitrogen Cat#10131-035), and 1× Penn/Strep (Invitrogen 15140-122). After cell expansion, aliquots were cryo-stored in media containing 5% DMSO (Pierce Cat#20684).
(§3) One day prior to experiments media was warmed to 37° C. and the cryo-stored cells were thawed in a 37° C. water bath. The cells were then added to media (10× volume) and the mixture was centrifugated at 1000 RPM for 5 min. The supernate was removed and the cells were re-suspended in media. A sample of the cell suspension was evaluated on a Cedex XS automated cell counter (Innovatis Systems) to determine viable cells/ml. Additional media was added to the cells to achieve a final cell density of 4E5 cells/mL. The cells were then plated into 384 well PDL white solid bottom plates (Greiner, Cat#781945) at 20 μL per well using a Multidrop (Thermo Scientific). Cells were removed from Row P (location of cAMP standards). Two columns of cells were plated into a clear bottom 384 well PDL coated plate (Greiner, Cat#781944) to view confluence the day of the assay. The cell plates were lidded and stored for 15 minutes in a hood, then transferred to an incubator (37° C., 5% CO2, 95% humidity) overnight.
(§4) DMSO was added to all wells of 384 well V bottom polystyrene plate (Greiner, Cat#781280) except to columns 1 and 13, rows O and P and wells M13-M23 and N13-N23. Test compounds (60 μL, 10 mM) were added to Column 1 and 13 (A1 through N1 and A13 through L13). Test compounds were serially diluted 1/3 by transferring and mixing 20 μl sample with 40 μL DMSO.
(§5) DMSO (40 μL) was added to wells of 384 well V bottom polystyrene plate: O2 through O11, M14 through M23, N14 through N23, and O14 through 023. AM630 (also known as [6-iodo-2-methyl-1-[2-(4-morpholinyl)ethyl]-1H-indol-3-yl](4-methoxyphenyl)-methanone, Cayman Chemical, Cat#10006974) (60 μL, 10 mM) was added to 01; and 1-(2,4-dichlorophenyl)-7-[(4-fluorophenyl)methylene]-4,5,6,7-tetrahydro-N-1-piperidinyl-1H-indazole-3-carboxamide (60 μL, 10 mM) was added to N13. The control was serially diluted 1/3 by transferring and mixing 20 μl sample with 40 μL DMSO. This process resulted 11 doses per control, 10 mM to […].
(§6) Cells plated the day prior to the assay in clear bottom plates were viewed on an inverse microscope to ensure confluency in the range of 60-75%. […]
On the technique in general: Time-resolved FRET reads energy transfer from a long-lived donor to a nearby acceptor.

Assay [2] addresses Human CB2R (Cannabanoid receptor 2) (Homo sapiens (Human), UniProt P34972). Nature of the assay: CB-2 in vitro cAMP (HTRF) assay in HEK-293 cells. Particulars: HEK-293 cells stably transfected with human CB2R, 250 nM Forskolin, mean where tested more than once, read-out: CB-2 (HEK_cAMP) EC50. Format: cell-based.
Source text: as §1, §2, §3, §4, §5, §6

In US9682940B2, “Indazole derivatives useful as CB-1 inverse agonists” (Janssen Pharmaceutica NV, priority 2015, dated 2017) one finds EC50 data, which are given here for 28 compounds.

The EC50 is the concentration at which the effect is half-maximal.

Chain of Human CB2R (Cannabanoid receptor 2) (P34972 whole entry): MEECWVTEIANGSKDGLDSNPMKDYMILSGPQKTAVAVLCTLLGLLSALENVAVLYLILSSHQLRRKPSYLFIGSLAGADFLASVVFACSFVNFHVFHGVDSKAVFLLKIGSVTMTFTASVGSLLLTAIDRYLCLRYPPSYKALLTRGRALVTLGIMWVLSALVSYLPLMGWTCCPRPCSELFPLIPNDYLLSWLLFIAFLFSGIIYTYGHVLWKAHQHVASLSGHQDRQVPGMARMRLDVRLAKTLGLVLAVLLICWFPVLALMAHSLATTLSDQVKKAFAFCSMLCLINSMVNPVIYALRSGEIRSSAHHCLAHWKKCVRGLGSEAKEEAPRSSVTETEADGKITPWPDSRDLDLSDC
Chain of Human CB1R (Cannabanoid receptor 1) (P21554 whole entry): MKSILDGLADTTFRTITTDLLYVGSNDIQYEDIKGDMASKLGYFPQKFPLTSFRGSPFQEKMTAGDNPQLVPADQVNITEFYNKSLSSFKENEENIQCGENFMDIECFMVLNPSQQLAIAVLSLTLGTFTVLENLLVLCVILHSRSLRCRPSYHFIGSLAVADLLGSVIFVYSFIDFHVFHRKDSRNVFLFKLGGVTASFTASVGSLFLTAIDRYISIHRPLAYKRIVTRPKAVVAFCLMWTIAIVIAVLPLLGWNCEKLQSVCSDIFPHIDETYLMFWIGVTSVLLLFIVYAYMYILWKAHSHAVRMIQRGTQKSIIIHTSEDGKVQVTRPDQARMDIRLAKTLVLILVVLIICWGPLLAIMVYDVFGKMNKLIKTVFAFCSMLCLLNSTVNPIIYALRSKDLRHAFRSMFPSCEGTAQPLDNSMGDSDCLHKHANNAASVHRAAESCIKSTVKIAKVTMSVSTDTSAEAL

Regarding `O=C(O)c1csc(CN2CCC(c3c4cc(C(c5ccc(Cl)cc5)c5ccc(Cl)cc5)ccc4nn3C3CC3)CC2)c1` [Compound 239, 5-((4-(5-(bis(4-chlorophenyl)methyl)-2-cyclopropyl-2H-indazol-3-yl)piperidin-1-yl)methyl)thiophene-3-carboxylic acid], the results for the half-maximal effective concentration (EC50) in assay [1] and in assay [2] were 43 nM and over 10000 nM, respectively.
For `O=S(=O)(c1ccc(O)cc1)N1CCC(Nc2n[nH]c3ccc(C(c4ccc(Cl)cc4)c4ccc(Cl)cc4)cc23)CC1` [Compound 130] the same measures were 15 nM and over 10000 nM.
The like results for `NC(=O)COc1ccc(N2CCC(c3n[nH]c4ccc(C(c5ccc(Cl)cc5)c5ccc(Cl)cc5)cc34)CC2)cc1` [Compound 224] were, in that order, 2080 nM and over 10000 nM.
Regarding `NC(=O)c1cccc(N2CCC(c3n[nH]c4ccc(C(c5ccc(Cl)cc5)c5ccc(Cl)cc5)cc34)CC2)c1` [Compound 218], the half-maximal effective concentration (EC50) in assay [1] was 265 nM; in assay [2] it was over 10000 nM.
The like results for `NC(=O)c1ccccc1S(=O)(=O)N1CCC(c2n[nH]c3ccc(C(c4ccc(Cl)cc4)c4ccc(Cl)cc4)cc23)CC1` [Compound 40] were, in that order, 297 nM and 10200 nM.
With `O=S(=O)(N1CCN(c2nn(S(=O)(=O)C(F)(F)F)c3ccc(C(c4ccc(Cl)cc4)c4ccc(Cl)cc4)cc23)CC1)C(F)(F)F` [Compound 29], the values for the EC50 in assay [1] and in assay [2] were 1490 nM and over 10000 nM, respectively.
For `O=C(NCc1ccccc1)N1CCC(c2n[nH]c3ccc(C(c4ccc(Cl)cc4)c4ccc(Cl)cc4)cc23)CC1` [Compound 262] the same measures were 672 nM and over 10000 nM.
For `O=C(O)c1ccc(CN2CCC(c3c4cc(C(c5ccc(Cl)cc5)c5ccc(Cl)cc5)ccc4nn3C3CC3)CC2)s1` [Compound 242, 5-((4-(5-(bis(4-chlorophenyl)methyl)-2-cyclopropyl-2H-indazol-3-yl)piperidin-1-yl)methyl)thiophene-2-carboxylic acid] the same measures were 16 nM and over 10000 nM.
As for `O=C(O)c1ccc(CS(=O)(=O)N2CCC(c3nn(C4CC4)c4ccc(C(c5ccc(Cl)cc5)c5ccc(Cl)cc5)cc34)CC2)s1` [Compound 236], the concentration for a half-maximal effect (EC50) in assay [1] was 68 nM; in assay [2] it was over 10000 nM.
The like results for `CNC(=O)c1cc(S(=O)(=O)N2CCC(c3c4cc(C(c5ccc(Cl)cc5)c5ccc(Cl)cc5)ccc4nn3C3CC3)CC2)ccc1Cl` [Compound 170, 5-(4-(5-(bis(4-chlorophenyl)methyl)-2-cyclopropyl-2H-indazol-3-yl)piperidin-1-ylsulfonyl)-2-chloro-N-methylbenzamide] were, in that order, 9 nM and over 10000 nM.
The like results for `O=S(=O)(N1CCC(c2nn(CCO)c3ccc(C(c4ccc(Cl)cc4)c4ccc(Cl)cc4)cc23)CC1)C(F)(F)F` [Compound 79] were, in that order, 14 nM and over 10000 nM.
As for `O=C(O)c1ccc(S(=O)(=O)N2CCC(c3nn(C4CC4)c4ccc(C(c5ccc(Cl)cc5)c5ccc(Cl)cc5)cc34)CC2)cc1` [Compound 89], the 50% effective concentration (EC50) was 339 nM in assay [1] and over 10000 nM in assay [2].
Turning to `O=C(O)c1cccc(S(=O)(=O)N2CCC(c3nn(C4CC4)c4ccc(C(c5ccc(Cl)cc5)c5ccc(Cl)cc5)cc34)CC2)c1` [Compound 88], the EC50 in assay [1] is 115 nM; in assay [2], over 10000 nM.
On to `CCOC(=O)Cn1nc(C2CCN(S(=O)(=O)C(F)(F)F)CC2)c2cc(C(c3ccc(Cl)cc3)c3ccc(Cl)cc3)ccc21` [Compound 75], for which the results for the EC50 in assay [1] and in assay [2] were 3920 nM and over 10000 nM, respectively.
For `O=C(O)c1ccc(S(=O)(=O)N2CCC(c3nn(CCO)c4ccc(C(c5ccc(Cl)cc5)c5ccc(Cl)cc5)cc34)CC2)cc1` [Compound 80], the EC50 was 374 nM in assay [1] and over 10000 nM in assay [2].
As to `NC(=O)c1cc(S(=O)(=O)N2CCC(c3c4cc(C(c5ccc(Cl)cc5)c5ccc(Cl)cc5)ccc4nn3C3CC3)CC2)ccc1F` [Compound 163, 5-(4-(5-(bis(4-chlorophenyl)methyl)-2-cyclopropyl-2H-indazol-3-yl)piperidin-1-ylsulfonyl)-2-fluorobenzamide], the values for the EC50 in assay [1] and in assay [2] were 12 nM and over 10000 nM, respectively.
For `NC(=O)c1ccc(S(=O)(=O)N2CCC(c3c4cc(C(c5ccc(Cl)cc5)c5ccc(Cl)cc5)ccc4nn3C3CC3)CC2)cc1F` [Compound 167, 4-(4-(5-(bis(4-chlorophenyl)methyl)-2-cyclopropyl-2H-indazol-3-yl)piperidin-1-ylsulfonyl)-2-fluorobenzamide] the same measures were 12 nM and over 10000 nM.
For `O=C(O)CCS(=O)(=O)N1CCC(c2nn(C3CC3)c3ccc(C(c4ccc(Cl)cc4)c4ccc(Cl)cc4)cc23)CC1` [Compound 109], the EC50 in assay [1] was 729 nM; in assay [2] it was over 10000 nM.
The like results for `NC(=O)c1ccccc1C(=O)N1CCC(c2nn(C3CC3)c3ccc(C(c4ccc(Cl)cc4)c4ccc(Cl)cc4)cc23)CC1` [Compound 96] were, in that order, 2240 nM and over 10000 nM.
The like results for `O=C(CO)N1CCC(c2c3cc(C(c4ccc(Cl)cc4)c4ccc(Cl)cc4)ccc3nn2C2CC2)CC1` [Compound 110] were, in that order, 134 nM and over 10000 nM.
For `O=C(O)c1ccc(S(=O)(=O)N2CCC(c3c4cc(C(c5ccc(Cl)cc5)c5ccc(Cl)cc5)ccc4nn3C3CC3)CC2)cc1F` [Compound 166, 4-(4-(5-(bis(4-chlorophenyl)methyl)-2-cyclopropyl-2H-indazol-3-yl)piperidin-1-ylsulfonyl)-2-fluorobenzoic acid] the same measures were 2 nM and 2390 nM.
Consider `COc1ccc(S(=O)(=O)N2CCC(Nc3n[nH]c4ccc(C(c5ccc(Cl)cc5)c5ccc(Cl)cc5)cc34)CC2)cc1` [Compound 119], for which the results for the concentration for a half-maximal effect (EC50) in assay [1] and in assay [2] were 144 nM and over 10000 nM, respectively.
For `O=C(O)COCCn1nc(N2CCN(S(=O)(=O)C(F)(F)F)CC2)c2cc(C(c3ccc(Cl)cc3)c3ccc(Cl)cc3)ccc21` [Compound 52] the same measures were 499 nM and over 10000 nM.
In the case of `O=C(NCCO)c1ccc(-n2nc(C3CCN(S(=O)(=O)C(F)(F)F)CC3)c3cc(C(c4ccc(Cl)cc4)c4ccc(Cl)cc4)ccc32)cc1` [Compound 229], the EC50 in assay [1] is 37 nM; in assay [2] it was over 10000 nM.
Consider `NC(=O)c1ccc(S(=O)(=O)N2CCC(c3c4cc(C(c5ccc(Cl)cc5)c5ccc(Cl)cc5)ccc4nn3C3CC3)CC2)cc1Cl` [Compound 153, 4-(4-(5-(bis(4-chlorophenyl)methyl)-2-cyclopropyl-2H-indazol-3-yl)piperidin-1-ylsulfonyl)-2-chlorobenzamide], for which the concentration giving a half-maximal response (EC50) in assay [1] is 17 nM; in assay [2], over 10000 nM.
The like results for `O=C(O)c1cccc(N2CCC(c3n[nH]c4ccc(C(c5ccc(Cl)cc5)c5ccc(Cl)cc5)cc34)CC2)c1` [Compound 212] were, in that order, 1830 nM and over 10000 nM.
Consider `Cn1nc(C2CCN(S(=O)(=O)c3ccc(C(=O)O)cc3)CC2)c2cc(C(c3ccc(Cl)cc3)c3ccc(Cl)cc3)ccc21` [Compound 62], for which the EC50 was 845 nM in assay [1] and over 10000 nM in assay [2].
In the case of `O=C(O)Cc1cccc(N2CCC(c3nn(C4CC4)c4ccc(C(c5ccc(Cl)cc5)c5ccc(Cl)cc5)cc34)CC2)c1` [Compound 180], the concentration giving a half-maximal response (EC50) in assay [1] is 6550 nM; in assay [2] it was over 10000 nM.
